Experimental data: article PMC9266004, “Potential Common Mechanisms of Cytotoxicity Induced by Amide Herbicides via TRPA1 Channel Activation” (International Journal of Environmental Research and Public …, 2022)
Read-outs that look alike come from different tables or passages of the source.

Legend:
TRPA1-KO A549 cells = assay: CCK-8 cell viability assay in TRPA1-KO A549 cells; type: cell-based, human; conditions: for IC50: Homo sapiens, TRPA1-KO A549 cells, 24 h treatment, CCK-8, read-out: IC50 values of AHs, TRPA1-KO A549 Cells; for viability of TRPA1-KO A549 cells compared with AHs-treated WT cells: KO of TRPA1, AHs 150, 300, 600 μM
Description: (§1) The hTRPA1 gene sequence (Gene ID: 8989) was obtained from the National Center for Biotechnology Information (NCBI) website (https://www.ncbi.nlm.nih.gov/gene/8989 accessed on 26 May 2022). Three gRNA sequences, namely, T1: 5′-[…]-[…], T16: 5′-[…]-3′, and T20: 5′-[…]-3′, were designed using the CRISPR online design tool (http://crispr.mit.edu/ accessed on 26 May 2022). Transfection of cells with gRNA-Cas9 was validated in test cells. Cell pool examination was performed using Sanger sequencing. Sequencing and tracer analysis were performed using the online tool TIDE (https://tide-calculator.nki.nl/ accessed on 26 May 2022) to investigate the cleavage efficiency of T1, T16, and T20. Cells from the cell pool were diluted in 96-well plates. Clones were observed under a microscope and wells containing single cell clones were labeled. Single cell clones were transferred to 24-well plates for expansion. Validation of knockout (KO) clones was performed via sequencing to confirm insertion and deletion on the genomes of KO clone candidates. Furthermore, mycoplasmas were detected for cloned cells with high KO using the Mycoplasma PCR Detection Kit.
(§2) Wild-type (WT) and TRPA1-KO A549 cells were cultured in McCoy’s 5A Media and F-12K Nutrient Mixture containing 10% fetal bovine serum, respectively. WT/TRPA1-KO A549 cells (5 × 10^4 cells/mL) were seeded in 96-well (100 μL/well) and 6-well (2 mL/well) plates and incubated at 37 °C with 5% CO2 in a humidified incubator for 24 h. WT/TRPA1-KO A549 cells were treated with AHs gradient concentrations (0, 150, 300, 600, 1200 μM) prepared in methanol (1.2 M) for 24 h. Additionally, WT/TRPA1-KO A549 cells were pre-treated with TRPA1 special inhibitor HC-030031 (100 μM) for 0.5 h and then treated with AHs gradient concentrations for 24 h.
(§3) To conduct the cell viability assay, the growth medium was removed from WT/TRPA1-KO A549 cells cultured in a 96-well plate. CCK-8 reagent was mixed with complete medium (1:9 volume ratio), and 100 µL of the CCK-8 reagent mixture was added to each well. The plate was incubated for 4 h and the absorbance was measured at 450 nm using a microplate reader (BNR05740; Molecular Devices, Sunnyvale, CA, USA). The average absorbance from each sextuplicate set of wells was calculated and the background control value was subtracted from each absorbance value. The percentage cell viability was determined using the following equation:cell viability (%) = [(As − Ab)/(Ac − Ab)] × 100% where As is the absorbance of the experimental well (containing medium, CCK-8 reagent, cells, and compound); Ac is the absorbance of the control well (containing medium, CCK-8 reagent, and cells); and Ab is the absorbance of the blank well (containing medium and CCK-8 reagent).

TRPA1 mRNA in A549 cells = assay: RT-qPCR of TRPA1 mRNA; type: cell-based, human; conditions: for TRPA1 mRNA expression with HC-030031 pre-treatment compared with AHs treatment alone: HC-030031 50 μM, AHs 150, 300, 600 μM; for expression of TRPA1 mRNA compared with 0 μM AHs: significant at one or more of 150, 300, 600 μM
Description: as §2, with “Additionally, WT/TRPA1-KO A549 cells were pre-treated with TRPA1 special inhibitor HC-030031 (100 μM) for 0.5 h and then treated with AHs gradient concentrations for 24 h.” left out
TRIzol Reagent (1 mL) was directly added to WT/TRPA1-KO A549 cells in 6-well plates and total RNA was extracted according to the manufacturer’s instructions. Total RNA was used for cDNA reverse transcription, which was performed according to the PrimeScript RT protocol with the following reaction conditions: 42 °C for 2 min, 4 °C for ∞ (removal of genomic DNA), 37 °C for 15 min, 85 °C for 5 s, and 4 °C for ∞ (reverse transcriptional reaction). RT-qPCR was performed according to the TB Green Premix Ex Taq II protocol. Primer sequences and product lengths were as follows: hTRPA1 (107 bp) forward primer 5′-[…]-3′, reverse primer 5′-[…]-3′; hβ-actin (184 bp) forward primer 5′-[…]-3′, reverse primer 5′-[…]-3′. RT-qPCR was performed using the CFX96 Real-Time System (Bio-Rad Laboratories, Hercules, CA, USA) using the following reaction conditions: 95 °C for 30 s, 40 cycles of 95 °C for 5 s, 60 °C for 30 s, and 72 °C for 30 s, followed by a melting curve from 65 to 95 °C in 0.5 °C/5 s increments. Calculations were performed using the CFX Manager^TM Version 1.0 software (Bio-Rad Laboratories Ltd., Hercules, CA, USA) and are represented as fold change in expression [2^ΔΔC(t)] on a linear scale.

[1] = system: calcium influx in TRPA1-KO A549 cells; assay: Cellular calcium imaging (Fluo-4) in TRPA1-KO A549 cells; type: cell-based, human; conditions: AHs 150-1200 μM
Description: as §1, §2
(§4) Working solution was prepared according to the instructions of the Fluo-4 Direct calcium assay kit and directly added to WT/TRPA1-KO A549 cells in 96-well plates, which were incubated for 0.5 h and kept away from light after removal from the incubator. Single channel fluorescein isothiocyanate (FITC) levels were measured using a confocal high-content imaging system (IXM-C S150069, Molecular Devices, San Jose, CA, USA).

A549 cells [2] = assay: LDH cytotoxicity assay; type: cell-based, human
Description: as §2
Using the Cytotoxicity LDH Assay Kit, lysis buffer (10 μL) was added to the high control well of a 96-well plate containing WT/TRPA1-KO A549 cells, which was then incubated for 0.5 h. Working solution was prepared by adding 5 mL assay buffer to the dye mixture vial, of which 100 μL was added to each well. The plate was protected from light and incubated at room temperature for 0.5 h. Subsequently, 50 μL stop solution was added to each well and the absorbance was measured immediately at 490 nm using a microplate reader (BNR05740, Molecular Devices). The average absorbance was calculated from each sextuplicate set of wells and the background control value was subtracted from each absorbance value. The percentage cytotoxicity was determined using the following equation:cytotoxicity (%) = [(Aa − Ab1)/(Ab2 − Ab1)] × 100% where Aa is the absorbance of the experimental well (containing medium, cells, and compound); Ab2 is the absorbance of the high control well (containing medium, cells, and lysis buffer); and Ab1 is the absorbance of the low control well (containing medium and cells).

[3] = system: calcium influx in A549 cells; assay: Cellular calcium imaging (Fluo-4) in WT A549 cells; type: cell-based, human; conditions: for calcium influx compared with 0 μM AHs: A549 cells, 150, 300, 600, 1200 μM; for calcium influx with HC-030031 pre-treatment compared with AHs treatment alone: A549 cells, HC-030031 50 μM, AHs 150-1200 μM
Description: as §2, with “Additionally, WT/TRPA1-KO A549 cells were pre-treated with TRPA1 special inhibitor HC-030031 (100 μM) for 0.5 h and then treated with AHs gradient concentrations for 24 h.” left out
as §4

A549 cells [4] = assay: CCK-8 cell viability assay in WT A549 cells; type: cell-based, human; conditions: for viability of A549 cells compared with 0 μM AHs: 150, 300, 600, 1200 μM, 24 h; for viability of A549 cells compared with 0 μM AHs / IC50: CCK-8; for viability with HC-030031 pre-treatment compared with AHs treatment alone: A549 cells, HC-030031 50 μM, AHs 150, 300, 600 μM
Description: as §2, with “Additionally, WT/TRPA1-KO A549 cells were pre-treated with TRPA1 special inhibitor HC-030031 (100 μM) for 0.5 h and then treated with AHs gradient concentrations for 24 h.” left out
as §3

[5] = molecular target: hTRPA1 ARD recombinant protein (Homo sapiens, UniProt O75762); assay: LSPR binding analysis (OpenSPR, COOH chip); conditions: at the analyte concentrations tested (up to 1000-2000 μM)
Description: The binding capacity of hTRPA1 ARD recombinant protein and AHs was determined by LSPR according to the OpenSPR (Nicoya Life Sciences, Kitchener, ON, Canada) operating procedure using the COOH chip. After the baseline signal was obtained, the sample was washed with 200 µL 80% isopropyl alcohol for 10 s, and 200 µL ethylcarbodiimide/N-hydroxysuccinimide solution was added. The sample loop was rinsed with phosphate-buffered saline (PBS). hTRPA1 (5 µL) was diluted with PBS, incubated for 4 min, and 200 µL blocking solution was added. […] Contact and dissociation time of analytes and protein were 240 s and 160 s, respectively. TraceDrawer software was applied to determine the association constant (ka), dissociation constant (kd), and affinity constant (KD) using a 1:1 model.

[6] = Homo sapiens, WT A549 cells, 24 h treatment, read-out: IC50 values of AHs, A549 Cells
[7] = WT A549 cells pre-treated with HC-030031 50 μM, then AHs 24 h, read-out: IC50 values of AHs, A549 Cells + HC-030031 50 μM

Sequence of hTRPA1 ARD recombinant protein (O75762 62-609): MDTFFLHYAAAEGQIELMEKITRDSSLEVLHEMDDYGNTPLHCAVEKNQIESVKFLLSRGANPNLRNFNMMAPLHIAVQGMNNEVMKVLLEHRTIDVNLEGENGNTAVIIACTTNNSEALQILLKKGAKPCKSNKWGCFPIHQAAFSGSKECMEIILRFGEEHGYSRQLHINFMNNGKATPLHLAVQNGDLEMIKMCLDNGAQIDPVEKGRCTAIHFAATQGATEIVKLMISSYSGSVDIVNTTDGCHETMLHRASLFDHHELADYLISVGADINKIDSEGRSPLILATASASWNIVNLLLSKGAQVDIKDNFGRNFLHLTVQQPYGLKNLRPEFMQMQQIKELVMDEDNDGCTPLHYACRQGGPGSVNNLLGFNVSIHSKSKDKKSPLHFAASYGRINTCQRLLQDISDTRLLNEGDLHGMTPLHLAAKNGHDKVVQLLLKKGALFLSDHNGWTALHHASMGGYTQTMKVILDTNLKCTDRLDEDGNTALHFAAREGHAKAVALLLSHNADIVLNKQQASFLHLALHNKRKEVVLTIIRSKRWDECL

SMILES	IC50 (TRPA1-KO A549 cells) [µM]	viability of TRPA1-KO A549 cells compared with AHs-treated WT cells (TRPA1-KO A549 cells)	TRPA1 mRNA expression with HC-030031 pre-treatment compared with AHs treatment alone (TRPA1 mRNA in A549 cells)	expression of TRPA1 mRNA compared with 0 μM AHs (TRPA1 mRNA in A549 cells)	calcium influx with KO of TRPA1 compared with AHs-treated WT cells [1]	cell damage (LDH) compared with 0 μM AHs (A549 cells [2]; 150, 300, 600, 1200 μM, 24 h)	calcium influx compared with 0 μM AHs [3]	calcium influx with HC-030031 pre-treatment compared with AHs treatment alone [3]	viability of A549 cells compared with 0 μM AHs (A549 cells [4])	viability with HC-030031 pre-treatment compared with AHs treatment alone (A549 cells [4])	IC50 (A549 cells [4]; [6]) [µM]	IC50 (A549 cells [4]; [7]) [µM]	binding between hTRPA1 and AHs (LSPR) [5]	cell damage (LDH) compared with 0 μM AHs (A549 cells [2])
CCc1cccc(CC)c1N(COC)C(=O)CCl [Alachlor, alachlor]	659	significantly increased the viability	significantly reduced	significantly increased	significantly decreased calcium influx	significantly increased cell damage	significantly increased	significantly decreased calcium influx	significantly decreased	significantly increased viability	565	731	Obvious binding was not detected	
CCCCOCN(C(=O)CCl)c1c(CC)cccc1CC [Butachlor, butachlor]	767	significantly increased the viability	significantly reduced	significantly increased	significantly decreased calcium influx		significantly increased	significantly decreased calcium influx	significantly decreased	significantly increased viability	619	1760	Obvious binding was not detected	significantly increased cell damage
CCc1cccc(C)c1N(COC(C)C)C(=O)CCl [Propisochlor, propisochlor]	1830	significantly increased the viability	albeit not significantly	significantly increased	significantly decreased calcium influx	significantly increased cell damage	significantly increased	significantly decreased calcium influx	significantly decreased	albeit not significantly	564	1690	Obvious binding was not detected	
CCOCN(C(=O)CCl)c1c(C)cccc1CC [Acetochlor, acetochlor]	696	significantly increased the viability	significantly reduced	significantly increased	significantly decreased calcium influx		significantly increased	significantly decreased calcium influx	significantly decreased	significantly increased viability	524	647	Obvious binding was not detected	
